Assay results as given in PubChem BioAssay AID330 (DTP/NCI, 2004).
Values joined by “and” are separate entries in the source; they are usually repeats but may differ in a detail not shown here. Equal entries are not always repeated. Toxic doses and inconclusive results are not listed. The calls were made as follows: active = survival T/C of 150% or more; inactive = T/C below 125% in these data.

System: P388 leukemia ip, CD2F1 mice, survival T/C
Assay: NCI In Vivo Anticancer Drug Screen. Data for tumor model P388 Leukemia (intraperitoneal) in CD2F1 (CDF1) mice
Details: endpoint: median survival time, higher = longer survival
Procedure, shortened: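 Mice carrying the transplanted tumor received test compound or vehicle. Survival was recorded in each group, and the value is the treated-group measurement divided by that of the vehicle-treated control group.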

[1] = dose: 100.0 mg/kg/injection, schedule: Q01DX001 (ip), vehicle: Klucel (hydroxypropylcellulose) (HPC)
[2] = dose: 200.0 mg/kg/injection, schedule: Q01DX001 (ip), vehicle: Klucel (hydroxypropylcellulose) (HPC)
[3] = dose: 400.0 mg/kg/injection, schedule: Q01DX001 (ip), vehicle: Klucel (hydroxypropylcellulose) (HPC)
[4] = dose: 50.0 mg/kg/injection, schedule: Q01DX005 (ip), vehicle: saline with Tween-80
[5] = dose: 100.0 mg/kg/injection, schedule: Q01DX005 (ip), vehicle: saline with Tween-80
[6] = dose: 200.0 mg/kg/injection, schedule: Q01DX005 (ip), vehicle: saline with Tween-80
[7] = dose: 50.0 mg/kg/injection, schedule: Q01DX005 (ip), vehicle: Klucel (hydroxypropylcellulose) (HPC)
[8] = dose: 100.0 mg/kg/injection, schedule: Q01DX005 (ip), vehicle: Klucel (hydroxypropylcellulose) (HPC)
[9] = dose: 25.0 mg/kg/injection, schedule: Q01DX009 (ip), vehicle: saline
[10] = dose: 50.0 mg/kg/injection, schedule: Q01DX009 (ip), vehicle: saline
[11] = dose: 100.0 mg/kg/injection, schedule: Q01DX009 (ip), vehicle: saline
[12] = dose: 50.0 mg/kg/injection, schedule: Q01DX009 (ip), vehicle: Klucel (hydroxypropylcellulose) (HPC)
[13] = dose: 100.0 mg/kg/injection, schedule: Q01DX009 (ip), vehicle: Klucel (hydroxypropylcellulose) (HPC)
[14] = dose: 200.0 mg/kg/injection, schedule: Q01DX009 (ip), vehicle: Klucel (hydroxypropylcellulose) (HPC)
[15] = dose: 200.0 mg/kg/injection, schedule: Q01DX005 (ip), vehicle: Klucel (hydroxypropylcellulose) (HPC)

Measured: T/C

O=C(SCC(/C=N/Nc1ccc([N+](=O)[O-])cc1[N+](=O)[O-])c1ccccc1)c1ccccc1 (stereo unspecified)
inactive: [1] 92 % of control | [2] 89 % of control | [3] 92 % of control

CN1C(=O)C(C)(C)CN(c2ccccc2)C1=S
inactive: [4] 100 % of control | [5] 108 % of control | [6] 103 % of control

CCC[CH2][Sn]([CH2]CCC)([O]C=O)[O]C=O
inactive: dose: 0.39 mg/kg/injection, schedule: Q01DX009 (ip), vehicle: saline 99 % of control and 108 % of control | dose: 0.79 mg/kg/injection, schedule: Q01DX009 (ip), vehicle: saline 100 % of control and 92 % of control | dose: 1.56 mg/kg/injection, schedule: Q01DX009 (ip), vehicle: saline 86 % of control and 94 % of control

CC1=NOC(=O)/C1=C/c1ccc(Cl)c(Cl)c1
inactive: [4] 112 % of control | [5] 114 % of control

CC(C)CC(NC(=O)OCC1c2ccccc2-c2ccccc21)C(=O)O (stereo unspecified)
inactive: [7] 101 % of control | [8] 100 % of control

O=S=C(c1ccccc1)N(Cc1ccccc1)Cc1ccccc1
inactive: [9] 96 % of control | [10] 97 % of control | [11] 97 % of control

Cc1ccc(S(=O)(=O)N(CCc2ccccc2)S(=O)(=O)c2ccc(C)cc2)cc1
inactive: [12] 94 % of control | [13] 100 % of control | [14] 109 % of control

CNc1ccccc1C(=O)NNC(=O)Nc1ccc(SC)cc1
inactive: dose: 50.0 mg/kg/injection, schedule: Q01DX009 (ip), vehicle: saline with Tween-80 103 % of control | dose: 100.0 mg/kg/injection, schedule: Q01DX009 (ip), vehicle: saline with Tween-80 97 % of control | dose: 200.0 mg/kg/injection, schedule: Q01DX009 (ip), vehicle: saline with Tween-80 100 % of control

NC(=O)C(Cl)Cn1ccnc1 (stereo unspecified)
inactive: dose: 50.0 mg/kg/injection, schedule: Q04DX003 (ip), vehicle: saline 103 % of control | dose: 100.0 mg/kg/injection, schedule: Q04DX003 (ip), vehicle: saline 100 % of control | dose: 200.0 mg/kg/injection, schedule: Q04DX003 (ip), vehicle: saline 110 % of control

O=C1OC(=O)C2CC3C(CC12)C1(Cl)C(Cl)=C(Cl)C3(Cl)C1(Cl)Cl (stereo unspecified)
inactive: [7] 104 % of control | [8] 100 % of control | [15] 107 % of control

CCC/C=C/C1SCC(=O)N1c1nncs1 (stereo unspecified)
inactive: [4] 102 % of control | [5] 103 % of control | [6] 117 % of control

CCCCC(CCC)(CCC)CCN
inactive: dose: 2.5 mg/kg/injection, schedule: Q01DX009 (ip), vehicle: suspension in saline 104 % of control and 105 % of control | dose: 5.0 mg/kg/injection, schedule: Q01DX009 (ip), vehicle: suspension in saline 100 % of control and 105 % of control | dose: 10.0 mg/kg/injection, schedule: Q01DX009 (ip), vehicle: suspension in saline 122 % of control and 97 % of control | dose: 20.0 mg/kg/injection, schedule: Q01DX009 (ip), vehicle: suspension in saline 106 % of control

O=C(NC(Cc1ccc(Br)cc1)C(=O)O)c1ccc(Br)cc1 (stereo unspecified)
inactive: [7] 104 % of control | [8] 101 % of control | [15] 104 % of control

Cc1cc2cc3c(=O)[nH]c(=O)cc-3n(CC(O)C(O)C(O)CO)c2cc1C (stereo unspecified)
inactive: dose: 12.5 mg/kg/injection, schedule: Q01DX009 (ip), vehicle: other 102 % of control | dose: 25.0 mg/kg/injection, schedule: Q01DX009 (ip), vehicle: other 96 % of control | dose: 50.0 mg/kg/injection, schedule: Q01DX009 (ip), vehicle: other 96 % of control | dose: 100.0 mg/kg/injection, schedule: Q01DX009 (ip), vehicle: other 95 % of control

Cc1ccc(-n2nc(C)c3c(N)nc(N)nc32)c(Cl)c1
inactive: dose: 100.0 mg/kg/injection, schedule: Q04DX003 (ip), vehicle: Klucel (hydroxypropylcellulose) (HPC) 101 % of control | dose: 200.0 mg/kg/injection, schedule: Q04DX003 (ip), vehicle: Klucel (hydroxypropylcellulose) (HPC) 101 % of control | dose: 400.0 mg/kg/injection, schedule: Q04DX003 (ip), vehicle: Klucel (hydroxypropylcellulose) (HPC) 103 % of control

CCOC(=O)c1c[nH]c2cc3ccccc3cc2c1=O
inactive: [10] 91 % of control | [11] 107 % of control | dose: 200.0 mg/kg/injection, schedule: Q01DX009 (ip), vehicle: saline 117 % of control

c1ccc(CNc2ccnc3c2ccc2ccccc23)cc1
inactive: [1] 100 % of control | [2] 97 % of control | [3] 100 % of control

Nc1cc2ccccc2c(Br)n1
inactive: dose: 100.0 mg/kg/injection, schedule: Q01DX001 (ip), vehicle: saline with Tween-80 100 % of control | dose: 200.0 mg/kg/injection, schedule: Q01DX001 (ip), vehicle: saline with Tween-80 95 % of control | dose: 400.0 mg/kg/injection, schedule: Q01DX001 (ip), vehicle: saline with Tween-80 100 % of control

O=c1c2cc3ccccc3n2c(=O)c2cc3ccccc3n12
inactive: [12] 87 % of control | [13] 91 % of control | [14] 92 % of control

Cc1ccc(S(=O)(=O)NC(=O)n2ccnc2C)cc1
inactive: [7] 97 % of control | [8] 100 % of control | [15] 104 % of control

CC(C)([CH2][Sn]([Cl])([CH2]C(C)(C)c1ccccc1)[O][Sn]([Cl])([CH2]C(C)(C)c1ccccc1)[CH2]C(C)(C)c1ccccc1)c1ccccc1
inactive: dose: 1.56 mg/kg/injection, schedule: Q01DX005 (ip), vehicle: Klucel (hydroxypropylcellulose) (HPC) 104 % of control and 97 % of control | dose: 3.12 mg/kg/injection, schedule: Q01DX005 (ip), vehicle: Klucel (hydroxypropylcellulose) (HPC) 99 % of control and 100 % of control and 109 % of control | dose: 6.25 mg/kg/injection, schedule: Q01DX005 (ip), vehicle: Klucel (hydroxypropylcellulose) (HPC) 100 % of control and 119 % of control and 96 % of control | dose: 12.5 mg/kg/injection, schedule: Q01DX005 (ip), vehicle: Klucel (hydroxypropylcellulose) (HPC) 100 % of control and 106 % of control

C[N+]12CC[N+](C)(CC1)CC2
inactive: dose: 12.5 mg/kg/injection, schedule: Q01DX009 (ip), vehicle: saline 101 % of control | [9] 109 % of control | [10] 115 % of control

CC1=Nc2ccccc2N(C)/C1=C/C1=CC(=O)c2ccccc2C1=O
inactive: dose: 100.0 mg/kg/injection, schedule: Q04DX003 (ip), vehicle: saline with Tween-80 108 % of control | dose: 200.0 mg/kg/injection, schedule: Q04DX003 (ip), vehicle: saline with Tween-80 117 % of control

CCC[CH2][Sn]([CH2]CCC)([S]CCS(=O)(=O)O)[S]CCS(=O)(=O)O (tested in a mixture with another compound)
inactive: dose: 60.0 mg/kg/injection, schedule: Q01DX005 (ip), vehicle: Klucel (hydroxypropylcellulose) (HPC) 105 % of control | dose: 120.0 mg/kg/injection, schedule: Q01DX005 (ip), vehicle: Klucel (hydroxypropylcellulose) (HPC) 105 % of control | dose: 240.0 mg/kg/injection, schedule: Q01DX005 (ip), vehicle: Klucel (hydroxypropylcellulose) (HPC) 115 % of control

CC1=CC(=O)N2CC(=O)N(C)c3ccc(Cl)cc3C2(c2ccccc2)O1 (stereo unspecified)
inactive: [7] 104 % of control | [8] 92 % of control | [15] 92 % of control

Cn1c(=NCCc2ccccc2)oc2ccc(Cl)cc21
inactive: [4] 103 % of control | [5] 100 % of control | [6] 100 % of control

Cc1ccc2ccccc2[n+]1CC(=O)c1ccc2c(c1)OCO2
inactive: [4] 110 % of control | [5] 105 % of control | [6] 103 % of control
